Data as given in patent publication US7473702B2, “Substituted gamma lactams as therapeutic agents” (Allergan, Inc., priority 2005, dated 2009).
pEC50, pKi: −log10 of the molar value.

Legend:
hTP = target: T1, hTP (Homo sapiens, UniProt P21731); test: Other receptors functional EC50, hTP; format: cell-based
T1 sequence (P21731 1-343): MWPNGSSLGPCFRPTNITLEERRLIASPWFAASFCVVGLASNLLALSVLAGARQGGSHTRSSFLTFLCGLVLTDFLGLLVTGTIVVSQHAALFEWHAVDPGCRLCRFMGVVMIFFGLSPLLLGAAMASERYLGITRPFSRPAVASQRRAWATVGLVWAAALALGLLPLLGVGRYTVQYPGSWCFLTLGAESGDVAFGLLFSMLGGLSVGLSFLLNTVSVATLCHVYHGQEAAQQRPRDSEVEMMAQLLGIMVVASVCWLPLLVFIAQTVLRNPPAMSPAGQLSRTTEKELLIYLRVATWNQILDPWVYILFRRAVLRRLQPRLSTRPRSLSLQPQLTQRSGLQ
Description: (§1) U.S. patent application Ser. No. 11/553,143, filed on Oct. 26, 2006, incorporated by reference herein, describes the methods used to obtain the in vitro data in the table below.

hEP3A = target: T2, hEP3A (Homo sapiens, UniProt P43115); test: Other receptors functional EC50, hEP3A; format: cell-based
T2 sequence (P43115 1-390): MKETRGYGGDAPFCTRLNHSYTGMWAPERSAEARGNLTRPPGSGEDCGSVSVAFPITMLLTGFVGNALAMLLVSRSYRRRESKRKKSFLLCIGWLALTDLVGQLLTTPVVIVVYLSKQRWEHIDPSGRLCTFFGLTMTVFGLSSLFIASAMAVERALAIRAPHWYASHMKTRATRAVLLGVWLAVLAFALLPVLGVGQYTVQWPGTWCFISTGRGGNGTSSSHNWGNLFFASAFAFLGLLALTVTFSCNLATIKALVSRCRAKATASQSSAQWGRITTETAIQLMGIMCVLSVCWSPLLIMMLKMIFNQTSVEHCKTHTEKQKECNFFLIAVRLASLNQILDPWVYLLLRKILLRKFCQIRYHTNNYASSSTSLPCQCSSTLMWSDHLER
Description: as §1

hDP = target: T3, hDP (Homo sapiens, UniProt Q13258); test: Other receptors functional EC50, hDP; format: cell-based
T3 sequence (Q13258 1-359): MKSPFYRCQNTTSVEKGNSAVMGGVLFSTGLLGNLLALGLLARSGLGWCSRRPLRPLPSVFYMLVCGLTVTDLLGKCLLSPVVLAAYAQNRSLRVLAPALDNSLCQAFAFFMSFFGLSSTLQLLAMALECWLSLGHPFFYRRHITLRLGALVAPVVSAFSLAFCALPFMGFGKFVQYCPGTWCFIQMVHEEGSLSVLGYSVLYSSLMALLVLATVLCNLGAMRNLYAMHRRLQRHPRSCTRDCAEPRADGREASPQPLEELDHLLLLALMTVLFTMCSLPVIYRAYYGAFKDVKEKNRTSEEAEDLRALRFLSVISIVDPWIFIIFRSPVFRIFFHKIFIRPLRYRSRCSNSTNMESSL
Description: as §1

EP2 [1] = target: T4, EP2 (Homo sapiens, UniProt P43116); test: EP2 binding Ki
T4 sequence (P43116 whole entry): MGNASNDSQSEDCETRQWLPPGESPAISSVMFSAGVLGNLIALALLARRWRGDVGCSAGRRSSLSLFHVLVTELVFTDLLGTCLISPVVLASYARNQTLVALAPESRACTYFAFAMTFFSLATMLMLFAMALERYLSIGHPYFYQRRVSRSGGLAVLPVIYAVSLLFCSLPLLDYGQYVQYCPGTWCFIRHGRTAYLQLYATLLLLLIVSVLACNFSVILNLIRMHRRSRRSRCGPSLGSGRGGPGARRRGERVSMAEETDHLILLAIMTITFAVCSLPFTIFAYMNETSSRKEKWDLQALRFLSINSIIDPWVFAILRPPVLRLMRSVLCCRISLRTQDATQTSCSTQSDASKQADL
Description: as §1

EP2 [2] = target: T4, EP2; test: EP2 cAMP EC50; format: cell-based
Description: as §1

EP2 [3] = target: T4, EP2; test: EP2 flipr EC50; format: cell-based
Description: as §1

pEC50 (hTP)	pEC50 (hEP3A)	pEC50 (hDP)	pKi (EP2 [1])	pEC50 (EP2 [2])	pEC50 (EP2 [3])	SMILES
< 5.00	5.53	< 5.00	5.66	7.62		CCCCCC(O)c1ccc(N2C(=O)CC[C@@H]2C/C=C/c2nc(C(=O)O)cs2)cc1 (stereo partly drawn)
	7.37	5.73	7.37	9.12	7.77	CCCCCC(O)c1ccc(N2C(=O)CC[C@@H]2C/C=C\c2nc(C(=O)O)cs2)cc1 (stereo partly drawn)
		< 5.00	6.08	7.72	7.64	CCCCC[C@H](O)c1ccc(N2C(=O)CC[C@@H]2/C=C\Cc2ccc(C(=O)O)s2)cc1
	5.68	< 5.00	5.85	7.14		CCCCC[C@H](O)c1ccc(N2C(=O)CC[C@@H]2C/C=C/c2ccc(C(=O)O)s2)cc1
